# Results: PubChem BioAssay AID248 (DTP/NCI, 2004)
# Values joined by “and” are separate entries in the source; they are usually repeats but may differ in a detail not shown here. Equal entries are not always repeated. Inconclusive results and toxic doses are left out.
# Tested on: L1210 leukemia ip in BDF1 mice, survival T/C
# Experiment: NCI In Vivo Anticancer Drug Screen. Data for tumor model L1210 Leukemia (intraperitoneal) in B6D2F1 (BDF1) mice
# Conditions: endpoint: mean survival time, higher = longer survival
# Summary of the method: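 Transplanted-tumor mice were given test agent; controls received vehicle only. Survival readings from the two groups were divided (treated over control).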
# [1] = dose: 100.0 mg/kg/injection, schedule: Q01DX001 (ip), vehicle: saline
# [2] = dose: 200.0 mg/kg/injection, schedule: Q01DX001 (ip), vehicle: saline
# [3] = dose: 400.0 mg/kg/injection, schedule: Q01DX001 (ip), vehicle: saline
# [4] = dose: 100.0 mg/kg/injection, schedule: Q04DX003 (ip), vehicle: saline with Tween-80
# [5] = dose: 200.0 mg/kg/injection, schedule: Q04DX003 (ip), vehicle: saline with Tween-80
# [6] = dose: 400.0 mg/kg/injection, schedule: Q04DX003 (ip), vehicle: saline with Tween-80
# [7] = dose: 100.0 mg/kg/injection, schedule: Q04DX002 (ip), vehicle: saline
# [8] = dose: 200.0 mg/kg/injection, schedule: Q04DX002 (ip), vehicle: saline
# [9] = dose: 400.0 mg/kg/injection, schedule: Q04DX002 (ip), vehicle: saline
# [10] = dose: 100.0 mg/kg/injection, schedule: Q04DX003 (ip), vehicle: Klucel (hydroxypropylcellulose) (HPC)
# [11] = dose: 200.0 mg/kg/injection, schedule: Q04DX003 (ip), vehicle: Klucel (hydroxypropylcellulose) (HPC)
# [12] = dose: 400.0 mg/kg/injection, schedule: Q04DX003 (ip), vehicle: Klucel (hydroxypropylcellulose) (HPC)
# [13] = dose: 100.0 mg/kg/injection, schedule: Q01DX009 (ip), vehicle: Klucel (hydroxypropylcellulose) (HPC)
smiles,measurement,setting,value
CCCCCCCCC(S(=O)(=O)CC)S(=O)(=O)CC,T/C,[1],97 % of control
same,T/C,[2],94 % of control
same,T/C,[3],92 % of control
Nc1ncnc(N)c1NC(=O)c1ccc(OCCCCOc2ccccc2)c(Cl)c1,T/C,[4],101 % of control
same,T/C,[5],102 % of control
same,T/C,[6],96 % of control
COc1ccc(OC)c(NC(=O)Oc2ccc3ccccc3c2)c1,T/C,[7],93 % of control
same,T/C,[8],101 % of control
same,T/C,[9],96 % of control
Cc1ccc(S(=O)(=O)N(C)c2cc(Cl)c(C(=O)O)c(Cl)c2)cc1,T/C,[10],96 % of control
same,T/C,[11],105 % of control
same,T/C,[12],97 % of control
CCCCCCCCC(C)C,T/C,"dose: 100.0 mg/kg/injection, schedule: Q04DX002 (ip), vehicle: saline with Tween-80",100 % of control
same,T/C,"dose: 200.0 mg/kg/injection, schedule: Q04DX002 (ip), vehicle: saline with Tween-80",97 % of control
OC(C1CC2CCC1C2)(C1CC2CCC1C2)C1CC2CCC1C2 (configuration not stated),T/C,"dose: 100.0 mg/kg/injection, schedule: Q01DX009 (ip), vehicle: saline with Tween-80",92 % of control
same,T/C,[10],94 % of control
same,T/C,"dose: 200.0 mg/kg/injection, schedule: Q01DX009 (ip), vehicle: saline with Tween-80",97 % of control
same,T/C,[11],96 % of control
same,T/C,"dose: 400.0 mg/kg/injection, schedule: Q01DX009 (ip), vehicle: saline with Tween-80",90 % of control
same,T/C,[12],97 % of control
CC(=O)OCCOc1ccc([N+](=O)[O-])cc1,T/C,[4],102 % of control
same,T/C,[5],102 % of control
same,T/C,[6],103 % of control
Nc1ccc(SC(Sc2ccc(N)cc2)c2ccccc2)cc1,T/C,"dose: 75.0 mg/kg/injection, schedule: Q01DX001 (ip), vehicle: other",105 % of control
same,T/C,"dose: 75.0 mg/kg/injection, schedule: Q04DX003 (ip), vehicle: other",101 % of control
same,T/C,"dose: 150.0 mg/kg/injection, schedule: Q01DX001 (ip), vehicle: other",107 % of control
same,T/C,"dose: 150.0 mg/kg/injection, schedule: Q04DX003 (ip), vehicle: other",89 % of control
same,T/C,"dose: 300.0 mg/kg/injection, schedule: Q01DX001 (ip), vehicle: other",100 % of control
same,T/C,"dose: 300.0 mg/kg/injection, schedule: Q04DX003 (ip), vehicle: other",92 % of control
CCC1(C(C)C)SC(N)=NC1=O (configuration not stated),T/C,"dose: 100.0 mg/kg/injection, schedule: Q01DX001 (ip), vehicle: carboxymethylcellulose (CMC)",102 % of control
same,T/C,"dose: 200.0 mg/kg/injection, schedule: Q01DX001 (ip), vehicle: carboxymethylcellulose (CMC)",94 % of control
same,T/C,"dose: 400.0 mg/kg/injection, schedule: Q01DX001 (ip), vehicle: carboxymethylcellulose (CMC)",96 % of control
CCCCCC(C)O[Si](C)c1cccc(C)c1 (configuration not stated),T/C,[4],107 % of control
same,T/C,[5],98 % of control
same,T/C,[6],102 % of control
COc1cccc(C(=O)c2ccccc2NC(C)=O)c1,T/C,[4],93 % of control
same,T/C,[5],94 % of control
same,T/C,[6],93 % of control
Cc1cc(N)no1,T/C,"dose: 100.0 mg/kg/injection, schedule: Q01DX009 (ip), vehicle: saline",100 % of control
same,T/C,"dose: 100.0 mg/kg/injection, schedule: Q04DX003 (ip), vehicle: saline",108 % of control
same,T/C,"dose: 200.0 mg/kg/injection, schedule: Q01DX009 (ip), vehicle: saline",104 % of control
same,T/C,"dose: 200.0 mg/kg/injection, schedule: Q04DX003 (ip), vehicle: saline",106 % of control
same,T/C,"dose: 400.0 mg/kg/injection, schedule: Q01DX009 (ip), vehicle: saline",104 % of control
same,T/C,"dose: 400.0 mg/kg/injection, schedule: Q04DX003 (ip), vehicle: saline",108 % of control
CCCCCC(=C/c1ccccc1)/C=N/NC(=O)c1ccc[n+](C)c1,T/C,"dose: 50.0 mg/kg/injection, schedule: Q01DX009 (ip), vehicle: Klucel (hydroxypropylcellulose) (HPC)",90 % of control
same,T/C,[13],98 % of control
CCO/C(C)=N/N(C)c1n[n+]([O-])ccc1C,T/C,[7],189 % of control
same,T/C,[8],96 % of control
same,T/C,[9],96 % of control
S=P(NCCS)(N1CC1)N1CC1,T/C,[1],106 % of control
same,T/C,[2],101 % of control
same,T/C,[3],101 % of control
CCCCCCCCN(C)N=Nc1ccc(C(=O)O)cc1,T/C,"dose: 25.0 mg/kg/injection, schedule: Q04DX003 (ip), vehicle: other",93 % of control
same,T/C,"dose: 50.0 mg/kg/injection, schedule: Q04DX003 (ip), vehicle: other",90 % of control
same,T/C,[13],102 % of control
same,T/C,"dose: 100.0 mg/kg/injection, schedule: Q04DX003 (ip), vehicle: other",92 % of control
same,T/C,"dose: 200.0 mg/kg/injection, schedule: Q01DX009 (ip), vehicle: Klucel (hydroxypropylcellulose) (HPC)",102 % of control
same,T/C,"dose: 200.0 mg/kg/injection, schedule: Q04DX003 (ip), vehicle: other",90 % of control
same,T/C,"dose: 300.0 mg/kg/injection, schedule: Q01DX009 (ip), vehicle: Klucel (hydroxypropylcellulose) (HPC)",98 % of control
same,T/C,"dose: 400.0 mg/kg/injection, schedule: Q01DX009 (ip), vehicle: Klucel (hydroxypropylcellulose) (HPC)",122 % of control and 90 % of control
same,T/C,"dose: 400.0 mg/kg/injection, schedule: Q04DX003 (ip), vehicle: other",95 % of control
same,T/C,"dose: 600.0 mg/kg/injection, schedule: Q01DX009 (ip), vehicle: Klucel (hydroxypropylcellulose) (HPC)",98 % of control
